Results as given in patent publication US20240294498A1, “FACTOR XIIA INHIBITORS” (Lunac Therapeutics Ltd, priority 2021, published 2024).
pKi: −log10 of the molar value.

Experiments:
Assay type in all cases: biochemical
[1] = molecular target: T1, thrombin (Homo sapiens, UniProt P00734); assay: Determination of selectivity: thrombin inhibition (chromogenic substrate GPR); conditions: fold selectivity for FXIIa over thrombin (human); category
T1 construct: FXa (5 nM) and thrombin (5 nM)
Procedure, shortened: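 Thrombin (5 nM) preincubated with increasing compound concentrations (top 500 μM, 5% DMSO) 10 min at 37 °C in 50 mM Tris, 137 mM NaCl pH 7.4, then GPR chromogenic substrate at its KM. pNA release read kinetically at 405 nm for 3 h at 37 °C. IC50 from initial rates, converted to Ki via Cheng–Prusoff.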

[2] = molecular target: T2, FXIIa (Homo sapiens, UniProt P00748); assay: Determination of Factor XIIa inhibition (chromogenic substrate S-2302); conditions: human FXIIa alpha, Ki category
T2 construct: FXIIa alpha
T2 sequence (P00748 373-615 limits assumed): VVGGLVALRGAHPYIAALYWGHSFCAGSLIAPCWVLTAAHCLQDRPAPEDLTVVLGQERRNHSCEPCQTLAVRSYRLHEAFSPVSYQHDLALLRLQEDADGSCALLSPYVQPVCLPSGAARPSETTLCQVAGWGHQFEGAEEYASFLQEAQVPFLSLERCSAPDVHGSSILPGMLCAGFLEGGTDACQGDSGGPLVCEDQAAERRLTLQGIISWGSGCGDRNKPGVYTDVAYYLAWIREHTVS
T2 sequence (P00748 20-372 partner limits assumed): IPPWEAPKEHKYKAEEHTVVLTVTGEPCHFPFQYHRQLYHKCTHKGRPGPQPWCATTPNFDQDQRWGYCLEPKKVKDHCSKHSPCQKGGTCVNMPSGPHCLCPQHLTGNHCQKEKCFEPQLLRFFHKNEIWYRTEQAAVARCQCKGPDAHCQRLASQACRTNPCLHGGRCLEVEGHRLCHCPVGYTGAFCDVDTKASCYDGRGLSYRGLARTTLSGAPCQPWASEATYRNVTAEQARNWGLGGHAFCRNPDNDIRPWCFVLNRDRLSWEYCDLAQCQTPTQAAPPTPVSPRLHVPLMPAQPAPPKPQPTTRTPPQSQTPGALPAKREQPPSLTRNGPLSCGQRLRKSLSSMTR
Procedure, shortened: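 Compound preincubated with 10 nM FXIIa for 10 min at 37° C in 50 mM Tris, 137 mM NaCl, pH 7.4, 5% DMSO, top concentration 500 μM; S-2302 added at Km. pNA release followed at 405 nm for 3 h; IC50 from initial rates, converted to Ki via Ki = IC50/(1+[S]/Km).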

[3] = molecular target: FXa (Homo sapiens, UniProt P00742); assay: Determination of selectivity: FXa inhibition (chromogenic substrate S2765); conditions: fold selectivity for FXIIa over FXa (human); category
Sequence of FXa (P00742 235-488 limits assumed): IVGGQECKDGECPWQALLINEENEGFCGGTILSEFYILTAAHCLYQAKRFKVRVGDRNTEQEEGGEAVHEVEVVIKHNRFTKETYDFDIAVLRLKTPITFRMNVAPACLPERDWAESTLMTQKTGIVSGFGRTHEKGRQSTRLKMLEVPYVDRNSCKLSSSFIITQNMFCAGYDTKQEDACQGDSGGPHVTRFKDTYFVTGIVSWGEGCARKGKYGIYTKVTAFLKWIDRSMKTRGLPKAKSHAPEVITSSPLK
Sequence of FXa (P00742 41-179 partner limits assumed): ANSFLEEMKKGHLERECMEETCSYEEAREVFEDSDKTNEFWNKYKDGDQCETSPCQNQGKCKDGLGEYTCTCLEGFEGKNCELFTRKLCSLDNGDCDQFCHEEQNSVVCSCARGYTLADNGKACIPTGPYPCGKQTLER
Procedure, shortened: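 FXa (5 nM) preincubated with increasing compound (top 500 μM) for 10 mins at 37° C in 50 mM Tris, 137 mM NaCl pH 7.4, 5% DMSO, then S2765 added at its KM. Absorbance at 405 nm followed kinetically for 3 hours; IC50 from initial rates, converted to Ki by Cheng-Prusoff.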

SMILES	Thrombin (human)/FXIIa alpha (human) [1]	pKi [2]	FXa (human)/FXIIa alpha (human) [3]
Cc1ccc(C[C@@H]2C[C@@H](C(=O)NCc3ccc4c(cnn4C)c3)N(C(=O)[C@@H]3NCCC[C@@H]3C(=O)N(C)C)C2)cc1 [Example M05751, (2R,3S)-N,N-dimethyl-2-((2S,4R)-2-(((1-methyl-1H-indazol-5-yl)methyl)carbamoyl)-4-(4-methylbenzyl)pyrrlidine-1-carbonyl)piperidine-3-carboxamide]	+++ (fold selectivity values greater than 100)	6.10 to 6.70	∘∘∘
Cc1ccc2c(c1)CCN2C1C[C@@H](C(=O)NCc2ccc3c(cnn3C)c2)N(C(=O)[C@@H]2NCCC[C@@H]2C(=O)N2CCCC2)C1 (single isomer, unassigned) [Example M05838]	+++ (fold selectivity values greater than 100)	6.10 to 6.70	∘∘∘
Cc1ccc(C[C@@H]2C[C@@H](C(=O)NCc3ccc4c(cnn4C)c3)N(C(=O)[C@@H]3NCCC[C@@H]3C(=O)N(C)CCN(C)C)C2)cc1 (single isomer, unassigned) [Example M05902]	+++ (fold selectivity values greater than 100)	> 6.70	∘∘∘
Cc1ccc(C[C@@H]2C[C@@H](C(=O)NCc3ccc4c(cnn4C)c3)N(C(=O)[C@@H]3NCCC[C@@H]3C(=O)N(C)CCN3CCCC3)C2)cc1 [Example M06039, (2R,3S)-N-methyl-2-((2S,4R)-2-(((1-methyl-1H-indazol-5-yl)methyl)carbamoyl)-4-(4-methylbenzyl)pyrrolidine-1-carbonyl)-N-(2-(pyrrolidin-1-yl)ethyl)piperidine-3-carboxamide]	+++ (fold selectivity values greater than 100)	> 6.70	∘∘∘
COc1cc(CNC(=O)[C@@H]2C[C@@H](Cc3ccc(C)cc3)CN2C(=O)[C@@H]2NCCC[C@@H]2C(=O)N2CCCC2)cc2cnn(C)c12 [Example M05799, (2S,4R)-N-((7-methoxy-1-methyl-1H-indazol-5-yl)methyl)-4-(4-methylbenzyl)-1-((2R,3S)-3-(pyrrolidine-1-carbonyl)piperidine-2-carbonyl)pyrrolidine-2-carboxamide]	++ (a fold selectivity value of 10 to 100)	> 6.70	∘∘∘
Cc1ccc(C[C@@H]2C[C@@H](C(=O)NCc3ccc4c(cnn4C)c3)N(C(=O)[C@@H]3NCCC[C@@H]3C(=O)N(C)C3CCN(C)C3)C2)cc1 (stereo partly drawn) [Example M06034, (2R,3S)-N-methyl-2-((2S,4R)-2-(((1-methyl-1H-indazol-5-yl)methyl)carbamoyl)-4-(4-methylbenzyl)pyrrolidine-1-carbonyl)-N-(1-methylpyrrolidin-3-yl)piperidine-3-carboxamide]	+++ (fold selectivity values greater than 100)	> 6.70	∘∘∘
Cc1ccc(C[C@@H]2C[C@@H](C(=O)NCc3cnc4[nH]cc(Cl)c4c3)N(C(=O)[C@@H]3NCCC[C@@H]3C(=O)N3CCCC3)C2)cc1 [Example M05899, (2S,4R)-N-((3-chloro-1H-pyrrolo[2,3-b]pyridin-5-yl)methyl)-4-(4-methylbenzyl)-1-((2R,3S)-3-(pyrrolidine-1-carbonyl)piperidine-2-carbonyl)pyrrolidine-2-carboxamide]	+ (fold selectivity values less than 10 (e.g. a fold selectivity value of less than 10 and greater than 1))	> 6.70	∘∘
CCCc1ccc(C[C@@H]2C[C@@H](C(=O)NCc3ccc4c(c3)nnn4C)N(C(=O)[C@@H]3NCCC[C@@H]3C(=O)N3CCCC3)C2)cc1 [Example M05935]	+++ (fold selectivity values greater than 100)	6.10 to 6.70	∘∘∘
Cn1nnc2cc(CNC(=O)[C@@H]3C/C(=C/C4=CCC5(CC4)CC5)CN3C(=O)[C@@H]3NCCC[C@@H]3C(=O)N3CCCC3)ccc21 [Example M05992, (S,Z)-N-((1-methyl-1H-benzo[d][1,2,3]triazol-5-yl)methyl)-1-((2R,3S)-3-(pyrrolidine-1-carbonyl)piperidine-2-carbonyl)-4-(spiro[2.5]oct-5-en-6-ylmethylene)pyrrolidine-2-carboxamide]	+++ (fold selectivity values greater than 100)	6.10 to 6.70	∘∘∘
Cc1ccc(C[C@@H]2C[C@@H](C(=O)NCc3ccc4c(cnn4C)c3)N(C(=O)[C@@H]3NCCC[C@@H]3C(=O)N(C)C3CC3)C2)cc1 [Example M05752, (2R,3S)-N-cyclopropyl-N-methyl-2-((2S,4R)-2-(((1-methyl-1H-indazol-5-yl)methyl)carbamoyl)-4-(4-methylbenyl)pyrrolidine-1-carbonyl)piperidine-3-carboxamide]	++ (a fold selectivity value of 10 to 100)	> 6.70	∘∘∘
CO[C@H]1CCN(C(=O)[C@H]2CCCN[C@H]2C(=O)N2C[C@H](Cc3ccc(C)cc3)C[C@H]2C(=O)NCc2ccc3c(cnn3C)c2)C1 [Example M05837, (2S,4R)-1-((2R,3S)-3-((S)-3-methoxypyrrolidine-1-carbonyl)piperidine-2-carbonyl)-N-((1-methyl-1H-indazol-5-yl)methyl)-4-(4-methylbenzyl)pyrrolidine-2-carboxamide]	+++ (fold selectivity values greater than 100)	> 6.70	∘∘∘
Cc1nnc2cc(CNC(=O)[C@@H]3C[C@@H](Cc4ccc(C(F)(F)F)cc4)CN3C(=O)[C@@H]3NCCC[C@@H]3C(=O)N3CCCC3)ccn12 [Example M05882, (2S,4R)-N-((3-methyl-[1,2,4]triazolo[4,3-a]pyridin-7-yl)methyl)-1-((2R,3S)-3-(pyrrolidine-1-carbonyl)piperidine-2-carbonyl)-4-(4-(trifluoromethyl)benzyl)pyrrolidine-2-carboxamide]	+++ (fold selectivity values greater than 100)	5.30 to 6.10	∘∘∘
Cc1ccc(C[C@@H]2C[C@@H](C(=O)NCc3ccc4c(cnn4C)c3)N(C(=O)[C@@H]3NCCC[C@@H]3C(=O)N(C)C3CCN(C)C3)C2)cc1 (stereo partly drawn) [Example M06033, (2R,3S)-N-methyl-2-((2S,4R)-2-(((1-methyl-1H-indazol-5-yl)methyl)carbmoyl)-4-(4-methylbenzyl)pyrrolidine-1-carbonyl)-N-(1-methylpyrrolidin-3-yl)piperidine-3-carboxamide]	+++ (fold selectivity values greater than 100)	> 6.70	∘∘∘
Cc1ccc(C[C@@H]2C[C@@H](C(=O)NCc3cc4cncc(F)c4[nH]3)N(C(=O)[C@@H]3NCCC[C@@H]3C(=O)N3CCCC3)C2)cc1 [Example M05712, (2S,4R)-N-((7-fluoro-1H-pyrrolo[3,2-c]pyridin-2-yl)methyl)-4-(4-methylbenzyl)-1-((2R,3S)-3-(pyrrolidine-1-carbonyl)piperidine-2-carbonyl)pyrrolidine-2-carboxamide]	+++ (fold selectivity values greater than 100)	6.10 to 6.70	∘∘∘
Cc1ccc(C[C@@H]2C[C@@H](C(=O)NCc3ccc4c(cnn4C)c3)N(C(=O)[C@@H]3NCCC[C@@H]3C(=O)N(C)C3CCN(C)CC3)C2)cc1 [Example M06061, (2R,3S)-N-methyl-2-((2S,4R)-2-(((1-methyl-1H-indazol-5-yl)methyl)carbamoyl)-4-(4-methylbenzyl)pyrrolidine-1-carbonyl)-N-(1-methylpiperidin-4-yl)piperidine-3-carboxamide]	+++ (fold selectivity values greater than 100)	> 6.70	∘∘∘
COc1ccc(C[C@@H]2C[C@@H](C(=O)NCc3cc4cnccc4[nH]3)N(C(=O)[C@@H]3NCCC[C@@H]3C(=O)N3CCCC3(C)C)C2)cc1 [Example M00467]	+ (fold selectivity values less than 10 (e.g. a fold selectivity value of less than 10 and greater than 1))	> 6.70	∘∘
